One experiment has as its target T1, c-Rel protein (Homo sapiens, UniProt Q04864).
T1 sequence (Q04864 1-619): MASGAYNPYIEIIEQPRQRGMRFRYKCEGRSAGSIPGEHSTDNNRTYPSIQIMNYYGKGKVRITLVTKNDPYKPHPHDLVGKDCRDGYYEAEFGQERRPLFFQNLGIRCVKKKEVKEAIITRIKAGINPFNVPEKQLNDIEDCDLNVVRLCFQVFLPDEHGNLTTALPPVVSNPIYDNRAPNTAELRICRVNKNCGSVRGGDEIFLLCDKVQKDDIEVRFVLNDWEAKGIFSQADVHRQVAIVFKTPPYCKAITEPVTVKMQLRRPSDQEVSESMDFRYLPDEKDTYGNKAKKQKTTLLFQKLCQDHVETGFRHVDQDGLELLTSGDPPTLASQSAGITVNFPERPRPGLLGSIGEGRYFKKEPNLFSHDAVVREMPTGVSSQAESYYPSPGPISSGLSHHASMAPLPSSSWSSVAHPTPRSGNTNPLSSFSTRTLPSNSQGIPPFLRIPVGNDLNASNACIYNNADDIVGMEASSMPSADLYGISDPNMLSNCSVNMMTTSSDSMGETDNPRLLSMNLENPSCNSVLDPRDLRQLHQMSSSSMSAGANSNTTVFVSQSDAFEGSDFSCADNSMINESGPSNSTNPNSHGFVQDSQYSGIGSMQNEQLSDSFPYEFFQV
As to the kind of experiment: Electrophoretic Mobility Shift Assay (EMSA), c-Rel binding to CD28RE oligonucleotide. The settings on record: 10 nM c-Rel protein. On the procedure: DNA binding reaction (20 μL) was carried out in 1×DNA Binding Buffer (10 mM Tris, 40 mM NaCl, 1 mM EDTA, 4% glycerol) with 10 nM c-Rel protein and 0.5 ng phosphor-labeled CD28RE oligonucleotide for 10 minutes at room temperature in 96-well plates. Test compounds, in serial dilutions, were added into each well, and further incubated for 15 minutes before loading onto native 5% polyacrylamide gel. Electrophoresis proceeded for 2.5 hours at 160V. Radioactive signals were quantified using Phospho-Imager. IC50 of compounds of example 1 to 75 were determined by quantifying the intensity of Rel/NF-κB inhibition in EMSA using phospho-imager. An example of EMSA data of the present invention is shown for compound 6 in FIG. 2.
In general terms: Mobility shift assays separate free from complexed probe on a gel.

A further experiment deals with NF-κB. As to the kind of experiment: NF-κB GFP assay in NFκB/Jurkat/GFP transcriptional reporter cells stimulated with TNF-α. The format is cell-based. The settings on record: Homo sapiens, TNF-α 5 ng/ml, 24 hours, read-out: NF-KB GFP IC50. The procedure: NFκB/Jurkat/GFP transcriptional reporter cell line was obtained from SBI System Biosciences. NF-κB/Jurkat/GFP™ Reporter cells (5×10^5 cells) were plated at a concentration of 1 million cells/ml into each well of a 24-well plate. TNF-α (5 ng/ml) was added. Compounds were added via serial dilutions to corresponding wells. After 24 hours, 100 μl of the cells were transferred to a well of a Costar® UV plate (96 well, No lid, w/UV Transparent Flat Bottom, Corning, N.Y., Cat #3635) and the intensity of GFP fluorescence was measured (Excitation 485+/−20, Emission 528+/−20) in a Synergy™ HT Multi-Detection Microplate Reader (BioTech, Winooski, Vt.). The intensities of GFP measured were plotted against the […].

Molecules are shown by their SMILES.

Broadly, the IC50 is the concentration that inhibits the measured activity by half.

As for `O=C(O)CCCCOc1ccc2cc3c(=O)[nH]c(=O)nc-3oc2c1Cl` [compound 54], the results for the IC50 at c-Rel protein and in the experiment on NF-κB were less than 5 µM and less than 20 µM, respectively.

With `COc1cc(OC)c2cc3c(=O)[nH]c(=O)nc-3oc2c1` [compound 14, 6,8-dimethoxy-2H-chromeno[2,3-d]pyrimidine-2,4(3H)-dione], the IC50 at c-Rel protein was less than 1 µM; in the experiment with NF-κB, 8.2 µM.

(Values after US11083729B2, “Methods of treating cancer with small molecule NF-κB inhibitors” (ImmuneTarget, Inc., priority 2017, dated 2021).)
